In one assay the target is GCN2 kinase (Homo sapiens, UniProt Q9P2K8). Put plainly: GCN2 enzyme inhibition assay (Transcreener ADP2 fluorescence polarization). The settings on record: compounds of Formula II; 280 μM ATP, 4 nM GCN2 kinase. It is filed as biochemical. A digest of the protocol:
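ADP formation read by Transcreener FP after a 1 h, 25 °C kinase reaction containing 280 μM ATP, 200 μM (RS)7 substrate and 4 nM GCN2, pH 7.5 Tris buffer. Compounds (0–8 μM final) were added 10 min before ATP. Percent inhibition gave IC50 and apparent Ki via tight-binding fit.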

Assay [1] deals with intracellular GCN2 (phosphorylation of the GCN2 substrate eIF2α) (Homo sapiens, UniProt Q9P2K8). Put plainly: GCN2 cellular inhibition assay (AlphaScreen SureFire P-eIF2α Ser51, borrelidin-treated U2OS cells). It is filed as cell-based. Conditions: compounds of Formula II; biomarker assay, phosphorylated eIF2α Ser51 in borrelidin-treated U2OS cells. A digest of the protocol:
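First, U2OS cells are plated and left overnight at 37 °C. Next, compounds (from 40 μM final, 4-fold steps) and 10 μM borrelidin are added for 1 h, cells lysed, and phospho-Ser51 eIF2α detected by AlphaScreen bead sandwich. Inhibition is computed versus borrelidin-only wells.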
Background: Alpha assays give light when donor and acceptor beads are brought close together.

Some results are limits rather than exact numbers.

In general, Ki refers to a dissociation constant, usually derived from enzyme kinetics or from competition with a known ligand. By IC50 is commonly meant the concentration needed to halve the response being measured.

Chain of GCN2 kinase (Q9P2K8 whole entry): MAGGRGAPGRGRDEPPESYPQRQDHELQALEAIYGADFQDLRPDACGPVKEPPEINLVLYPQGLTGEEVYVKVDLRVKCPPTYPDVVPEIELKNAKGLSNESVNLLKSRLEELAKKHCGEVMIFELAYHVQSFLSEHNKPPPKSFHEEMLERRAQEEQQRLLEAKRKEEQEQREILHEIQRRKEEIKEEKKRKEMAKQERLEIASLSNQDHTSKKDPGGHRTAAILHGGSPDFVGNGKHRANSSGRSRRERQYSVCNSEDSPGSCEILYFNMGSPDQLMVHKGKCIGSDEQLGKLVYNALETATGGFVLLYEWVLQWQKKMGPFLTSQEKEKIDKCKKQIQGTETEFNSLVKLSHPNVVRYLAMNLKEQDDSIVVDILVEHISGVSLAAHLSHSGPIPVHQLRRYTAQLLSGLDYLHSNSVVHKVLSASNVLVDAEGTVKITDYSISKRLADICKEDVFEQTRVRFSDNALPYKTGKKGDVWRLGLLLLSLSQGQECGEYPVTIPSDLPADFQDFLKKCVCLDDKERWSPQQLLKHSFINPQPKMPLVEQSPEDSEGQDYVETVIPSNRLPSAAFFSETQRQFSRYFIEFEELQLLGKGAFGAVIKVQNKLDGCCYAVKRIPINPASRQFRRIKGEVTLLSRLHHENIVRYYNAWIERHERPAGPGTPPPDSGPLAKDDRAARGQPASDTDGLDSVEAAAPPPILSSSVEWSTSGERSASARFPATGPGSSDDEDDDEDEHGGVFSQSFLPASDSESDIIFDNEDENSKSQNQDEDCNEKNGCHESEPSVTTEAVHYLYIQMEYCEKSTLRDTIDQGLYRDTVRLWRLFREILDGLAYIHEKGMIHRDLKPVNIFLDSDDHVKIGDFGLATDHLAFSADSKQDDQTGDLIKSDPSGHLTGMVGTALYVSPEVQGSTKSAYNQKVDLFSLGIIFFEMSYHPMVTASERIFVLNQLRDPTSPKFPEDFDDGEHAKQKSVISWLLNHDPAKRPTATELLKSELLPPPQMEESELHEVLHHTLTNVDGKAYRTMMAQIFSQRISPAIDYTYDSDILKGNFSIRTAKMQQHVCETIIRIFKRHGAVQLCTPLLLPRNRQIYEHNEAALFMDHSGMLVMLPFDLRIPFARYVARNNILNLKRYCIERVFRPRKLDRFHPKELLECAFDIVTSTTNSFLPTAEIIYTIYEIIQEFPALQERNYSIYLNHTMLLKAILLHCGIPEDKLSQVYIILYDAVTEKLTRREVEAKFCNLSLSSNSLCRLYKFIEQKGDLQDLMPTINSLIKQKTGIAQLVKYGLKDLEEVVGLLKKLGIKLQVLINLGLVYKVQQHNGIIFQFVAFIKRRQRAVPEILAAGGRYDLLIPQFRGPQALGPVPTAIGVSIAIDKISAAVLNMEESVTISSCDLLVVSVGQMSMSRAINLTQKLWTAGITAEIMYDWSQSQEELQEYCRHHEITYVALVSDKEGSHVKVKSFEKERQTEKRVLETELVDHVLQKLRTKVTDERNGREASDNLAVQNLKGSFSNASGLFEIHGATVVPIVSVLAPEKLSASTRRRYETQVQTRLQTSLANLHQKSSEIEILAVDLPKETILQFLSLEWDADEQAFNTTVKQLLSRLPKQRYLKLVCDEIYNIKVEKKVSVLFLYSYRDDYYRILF
Chain of intracellular GCN2 (phosphorylation of the GCN2 substrate eIF2α) (Q9P2K8 whole entry): as above

On to `O=S1(=O)CCN(c2cc(-c3cnc4ccc(C(F)F)nn34)ccn2)CC1` [II-77, 4-(4-(6-(Difluoromethyl)imidazo[1,2-b]pyridazin-3-yl)pyridin-2-yl)thiomorpholine 1,1-dioxide], for which the Ki at GCN2 kinase is 10 to 1000 nM. Further, in assay [1], the IC50 was over 5 µM.
Turning to `CC1CN(c2cc(-c3cnc4ccc(C(F)F)nn34)ccn2)CC(CNS(C)(=O)=O)C1(F)F` (stereo not drawn) [II-78, N-((1-(4-(6-(Difluoromethyl)imidazo[1,2-b]pyridazin-3-yl)pyridin-2-yl)-4,4-difluoro-5-methylpiperidin-3-yl)methyl)methanesulfonamide], the Ki on GCN2 kinase was under 10 nM. The compound also came in with an IC50 in assay [1] of under 0.5 µM.
The like results for `FC(F)c1ccc2ncc(-c3ccnc(N4CC5(CNC5)C4)c3)n2n1` [II-79, 3-(2-(2,6-Diazaspiro[3.3]heptan-2-yl)pyridin-4-yl)-6-(difluoromethyl)imidazo[1,2-b]pyridazine] were, in that order, 10 to 1000 nM and over 5 µM.
The matching figures for `CS(=O)(=O)NCC1CCCN(c2cc(-c3cnc4ccc(C(F)F)nn34)cc(CN)n2)C1` (stereo not drawn) [II-80, N-((1-(6-(Aminomethyl)-4-(6-(difluoromethyl)imidazo[1,2-b]pyridazin-3-yl)pyridin-2-yl)piperidin-3-yl)methyl)methanesulfonamide]: under 10 nM and 0.5 to 5 µM.
The matching figures for `CS(=O)(=O)NCC1CN(c2cc(-c3cnc4ccc(C(F)F)nn34)ccn2)CCN1C1COC1` (stereo not drawn) [II-81, N-((4-(4-(6-(Difluoromethyl)imidazo[1,2-b]pyridazin-3-yl)pyridin-2-yl)-1-(oxetan-3-yl)piperazin-2-yl)methyl)methanesulfonamide]: 10 to 1000 nM and over 5 µM.
`CS(=O)(=O)NCC1CCCN(c2cc(-c3cnc4ccc(C(F)F)nn34)ccc2C#N)C1` (stereo not drawn) [II-82, N-((1-(2-Cyano-5-(6-(difluoromethyl)imidazo[1,2-b]pyridazin-3-yl)phenyl)piperidin-3-yl)methyl)methanesulfonamide] yielded a Ki on GCN2 kinase of 10 to 1000 nM. This compound also gave an IC50 in assay [1] of 0.5 to 5 µM.
The like results for `CS(=O)(=O)NCC1CCCN(c2cc(-c3cnc4ccc(C(F)F)nn34)cc(N3CC4(COC4)C3)n2)C1` (stereo not drawn) [II-83, N-((1-(4-(6-(Difluoromethyl)imidazo[1,2-b]pyridazin-3-yl)-6-(2-oxa-6-azaspiro[3.3]heptan-6-yl)pyridin-2-yl)piperidin-3-yl)methyl)methanesulfonamide] were, in that order, under 10 nM and 0.5 to 5 µM.
The like results for `CS(=O)(=O)NCC1CCCN(c2cc(-c3cnc4ccc(C(F)F)nn34)cc(OC3CNC3)n2)C1` (stereo not drawn) [II-84, N-((1-(6-(Azetidin-3-yloxy)-4-(6-(difluoromethyl)imidazo[1,2-b]pyridazin-3-yl)pyridin-2-yl)piperidin-3-yl)methyl)methanesulfonamide] were, in that order, under 10 nM and 0.5 to 5 µM.
The matching figures for `CS(=O)(=O)NCC1CCCN(c2cc(-c3cnc4ccc(C(F)F)nn34)cc(N3CC(O)C3)n2)C1` (stereo not drawn) [II-85, N-((1-(4-(6-(Difluoromethyl)imidazo[1,2-b]pyridazin-3-yl)-6-(3-hydroxyazetidin-1-yl)pyridin-2-yl)piperidin-3-yl)methyl)methanesulfonamide]: under 10 nM and 0.5 to 5 µM.
`CS(=O)(=O)NCC1CCCN(c2cc(-c3cnc4ccc(C(F)F)nn34)cc(N3CC4(CCO4)C3)n2)C1` (stereo not drawn) [II-86, N-((1-(4-(6-(Difluoromethyl)imidazo[1,2-b]pyridazin-3-yl)-6-(1-oxa-6-azaspiro[3.3]heptan-6-yl)pyridin-2-yl)piperidin-3-yl)methyl)methanesulfonamide] came in with a Ki on GCN2 kinase of under 10 nM. The IC50 in assay [1] was 0.5 to 5 µM.
The matching figures for `CS(=O)(=O)NCC1CCCN(c2cncc(-c3cnc4ccc(C(F)F)nn34)c2)C1` (stereo not drawn) [II-87, N-((1-(5-(6-(Difluoromethyl)imidazo[1,2-b]pyridazin-3-yl)pyridin-3-yl)piperidin-3-yl)methyl)methanesulfonamide]: under 10 nM and 0.5 to 5 µM.
The like results for `O=C1OCC2CN(c3cc(-c4cnc5ccc(C(F)F)nn45)ccn3)CCN12` (stereo not drawn) [II-88, 7-(4-(6-(Difluoromethyl)imidazo[1,2-b]pyridazin-3-yl)pyridin-2-yl)tetrahydro-1H-oxazolo[3,4-a]pyrazin-3(5H)-one] were, in that order, 10 to 1000 nM and 0.5 to 5 µM.
On GCN2 kinase, `COCCNc1cc(-c2cnc3ccc(C(F)F)nn23)cc(N2CCCC(CNS(C)(=O)=O)C2)n1` (stereo not drawn) [II-89, N-((1-(4-(6-(Difluoromethyl)imidazo[1,2-b]pyridazin-3-yl)-6-((2-methoxyethyl)amino)pyridin-2-yl)piperidin-3-yl)methyl)methanesulfonamide] registered a Ki of under 10 nM. In assay [1], the IC50 was 0.5 to 5 µM.
On GCN2 kinase, `CS(=O)(=O)NCC1CN(c2cc(-c3cnc4ccc(C(F)F)nn34)ccn2)CCN1` (stereo not drawn) [II-90, N-((4-(4-(6-(Difluoromethyl)imidazo[1,2-b]pyridazin-3-yl)pyridin-2-yl)piperazin-2-yl)methyl)methanesulfonamide] yielded a Ki of 10 to 1000 nM. Besides, the IC50 in assay [1] was in the range of 0.5 to 5 µM.
The like results for `CS(=O)(=O)NCC1CCCN(c2cc(-c3cnc4ccc(C(F)F)nn34)cc(N3CC4(CNC4)C3)n2)C1` (stereo not drawn) [II-92, N-[[1-[6-(2,6-Diazaspiro[3.3]heptan-2-yl)-4-[6-(difluoromethyl)imidazo[1,2-b]pyridazin-3-yl]-2-pyridyl]-3-piperidyl]methyl]methanesulfonamide] were, in that order, under 10 nM and 0.5 to 5 µM.
Take `CC1CN(c2ccnc(-c3cnc4ccc(C(F)F)nn34)c2)CC(CNS(C)(=O)=O)O1` (stereo not drawn) [II-94, N-((4-(2-(6-(Difluoromethyl)imidazo[1,2-b]pyridazin-3-yl)pyridin-4-yl)-6-methylmorpholin-2-yl)methyl)methanesulfonamide]: the Ki at GCN2 kinase was under 10 nM. Also, the IC50 in assay [1] was under 0.5 µM.
The like results for `CS(=O)(=O)NCC1CCCN(c2cc(-c3cnc4ccc(C(F)F)nn34)cc(N3CCNCC3)n2)C1` (stereo not drawn) [II-96, N-((1-(4-(6-(Difluoromethyl)imidazo[1,2-b]pyridazin-3-yl)-6-(piperazin-1-yl)pyridin-2-yl)piperidin-3-yl)methyl)methanesulfonamide] were, in that order, under 10 nM and 0.5 to 5 µM.
The matching figures for `CN1CCN(c2cc(-c3cnc4ccc(C(F)F)nn34)ccn2)CC1CO` (stereo not drawn) [II-97, (4-(4-(6-(Difluoromethyl)imidazo[1,2-b]pyridazin-3-yl)pyridin-2-yl)-1-methylpiperazin-2-yl)methanol]: 10 to 1000 nM and over 5 µM.
The like results for `CN1CCN(c2cc(-c3cnc4ccc(C(F)F)nn34)ccn2)CC1CNS(C)(=O)=O` (stereo not drawn) [II-98, N-((4-(4-(6-(Difluoromethyl)imidazo[1,2-b]pyridazin-3-yl)pyridin-2-yl)-1-methylpiperazin-2-yl)methyl)methanesulfonamide] were, in that order, 10 to 1000 nM and 0.5 to 5 µM.
On GCN2 kinase, `CS(=O)(=O)NCC1COCCN(c2cc(-c3cnc4ccc(C(F)F)nn34)ccn2)C1` (stereo not drawn) [II-99, N-((4-(4-(6-(Difluoromethyl)imidazo[1,2-b]pyridazin-3-yl)pyridin-2-yl)-1,4-oxazepan-6-yl)methyl)methanesulfonamide] showed a Ki of under 10 nM. In assay [1], this compound registered an IC50 of 0.5 to 5 µM.
As for `CS(=O)(=O)N1CC2(CCCN(c3cncc(-c4cnc5ccc(C(F)F)nn45)c3)C2)C1` [II-101, 6-(Difluoromethyl)-3-(5-(2-(methylsulfonyl)-2,6-diazaspiro[3.5]nonan-6-yl)pyridin-3-yl)imidazo[1,2-b]pyridazine], the Ki at GCN2 kinase is under 10 nM. The IC50 in assay [1] lay within 0.5 to 5 µM.
The matching figures for `CS(C)(=O)=NC[C@@H]1CN(c2cc(-c3cnc4ccc(C(F)F)nn34)ccn2)CCO1` [II-102, [(2S)-4-[4-[6-(Difluoromethyl)imidazo[1,2-b]pyridazin-3-yl]-2-pyridyl]morpholin-2-yl]methylimino-dimethyl-oxo-sulfane]: 10 to 1000 nM and over 5 µM.
The matching figures for `CS(=O)(=O)NCC1CN(c2ccnc(-c3cnc4ccc(C(F)F)nn34)c2)CCC1(F)F` (stereo not drawn) [II-103, N-((1-(2-(6-(Difluoromethyl)imidazo[1,2-b]pyridazin-3-yl)pyridin-4-yl)-4,4-difluoropiperidin-3-yl)methyl)methanesulfonamide]: under 10 nM and under 0.5 µM.
The matching figures for `CS(=N)(=O)CCC1CCCN(c2cc(-c3cnc4ccc(C(F)F)nn34)ccn2)C1` (stereo not drawn) [II-104, (2-(1-(4-(6-(Difluoromethyl)imidazo[1,2-b]pyridazin-3-yl)pyridin-2-yl)piperidin-3-yl)ethyl)(imino)(methyl)-λ^6-sulfanone]: 10 to 1000 nM and over 5 µM.
For the compound `CC(NS(C)(=O)=O)C1CN(c2ccnc(-c3cnc4ccc(C(F)F)nn34)c2)CCO1` (stereo not drawn) [II-105, N-(1-(4-(2-(6-(Difluoromethyl)imidazo[1,2-b]pyridazin-3-yl)pyridin-4-yl)morpholin-2-yl)ethyl)methanesulfonamide], the Ki on GCN2 kinase was under 10 nM. In assay [1], this compound showed an IC50 of 0.5 to 5 µM.
At GCN2 kinase, `CC(NS(C)(=O)=O)C1CN(c2cc(-c3cnc4ccc(C(F)F)nn34)ccn2)CCO1` (stereo not drawn) [II-106, N-(1-(4-(4-(6-(Difluoromethyl)imidazo[1,2-b]pyridazin-3-yl)pyridin-2-yl)morpholin-2-yl)ethyl)methanesulfonamide] registered a Ki of under 10 nM. Further, the IC50 in assay [1] lay within 0.5 to 5 µM.
Consider `FC(F)c1ccc2ncc(-c3ccnc(N4CCOC(c5cn[nH]c5)C4)c3)n2n1` (stereo not drawn) [II-107, 4-(4-(6-(Difluoromethyl)imidazo[1,2-b]pyridazin-3-yl)pyridin-2-yl)-2-(1H-pyrazol-4-yl)morpholine], for which the Ki on GCN2 kinase lay in the range of 10 to 1000 nM. The compound further came in with an IC50 in assay [1] of under 0.5 µM.

For the origin of these results see patent US10988477B2 (Merck Patent GmbH, priority 2018, dated 2021).
